The subject of the assay is L1210 leukemia ip in BDF1 mice, survival T/C. In words: NCI In Vivo Anticancer Drug Screen. Data for tumor model L1210 Leukemia (intraperitoneal) in B6D2F1 (BDF1) mice. To be noted: endpoint: mean survival time, higher = longer survival. The method in brief: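 Mice bearing the transplanted tumor received compound or vehicle. Survival of the treated group was divided by that of the vehicle-treated control group to give the ratio.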

[1] abbreviates: dose: 100.0 mg/kg/injection, schedule: Q04DX003 (ip), vehicle: saline.
Setting [2] is: dose: 200.0 mg/kg/injection, schedule: Q04DX003 (ip), vehicle: saline.
Where [3] appears, read: dose: 400.0 mg/kg/injection, schedule: Q04DX003 (ip), vehicle: saline.
Where [4] appears, read: dose: 100.0 mg/kg/injection, schedule: Q01DX001 (ip), vehicle: saline.
Setting [5] is: dose: 200.0 mg/kg/injection, schedule: Q01DX001 (ip), vehicle: saline.
The mark [6] stands for this setting: dose: 100.0 mg/kg/injection, schedule: Q04DX003 (ip), vehicle: saline with Tween-80.
[7] abbreviates: dose: 200.0 mg/kg/injection, schedule: Q04DX003 (ip), vehicle: saline with Tween-80.
The mark [8] stands for this setting: dose: 75.0 mg/kg/injection, schedule: Q01DX009 (ip), vehicle: Klucel (hydroxypropylcellulose) (HPC).
Setting [9] is: dose: 150.0 mg/kg/injection, schedule: Q01DX009 (ip), vehicle: Klucel (hydroxypropylcellulose) (HPC).
[10] abbreviates: dose: 300.0 mg/kg/injection, schedule: Q01DX009 (ip), vehicle: Klucel (hydroxypropylcellulose) (HPC).
Setting [11] is: dose: 100.0 mg/kg/injection, schedule: Q04DX003 (ip), vehicle: Klucel (hydroxypropylcellulose) (HPC).
The mark [12] stands for this setting: dose: 200.0 mg/kg/injection, schedule: Q04DX003 (ip), vehicle: Klucel (hydroxypropylcellulose) (HPC).
Setting [13] is: dose: 400.0 mg/kg/injection, schedule: Q04DX003 (ip), vehicle: Klucel (hydroxypropylcellulose) (HPC).
[14] abbreviates: dose: 100.0 mg/kg/injection, schedule: Q04DX003 (ip), vehicle: saline sonified.
The mark [15] stands for this setting: dose: 400.0 mg/kg/injection, schedule: Q01DX001 (ip), vehicle: saline.
Where [16] appears, read: dose: 100.0 mg/kg/injection, schedule: Q01DX009 (ip), vehicle: saline with Tween-80.
Where [17] appears, read: dose: 200.0 mg/kg/injection, schedule: Q01DX009 (ip), vehicle: saline with Tween-80.
The mark [18] stands for this setting: dose: 400.0 mg/kg/injection, schedule: Q01DX009 (ip), vehicle: saline with Tween-80.
The mark [19] stands for this setting: dose: 400.0 mg/kg/injection, schedule: Q04DX003 (ip), vehicle: saline with Tween-80.

“And” between values parts separate entries of the source, which are not always exact repeats. Equal entries are not always repeated. Inconclusive results and toxic doses are left out.

Turning to `CCCC/C(=N\NC(N)=S)c1ccc(F)cc1`, the T/C reads like this: (dose: 8.0 mg/kg/injection, schedule: Q01DX Z (ip), vehicle: methylcellulose (MC)) 95 % of control; (dose: 15.0 mg/kg/injection, schedule: Q01DX Z (ip), vehicle: methylcellulose (MC)) 89 % of control; (dose: 30.0 mg/kg/injection, schedule: Q01DX Z (ip), vehicle: methylcellulose (MC)) 98 % of control; (dose: 30.0 mg/kg/injection, schedule: Q01DX Z (oral), vehicle: methylcellulose (MC)) 86 % of control; (dose: 60.0 mg/kg/injection, schedule: Q01DX Z (ip), vehicle: methylcellulose (MC)) 87 % of control.

Regarding `CNCc1nc2ccccc2c(C)[n+]1[O-]`, the T/C is 97 % of control under setting [1], 97 % of control under setting [2] and 95 % of control under setting [3].

As to `Cc1cccc(OCCOc2cccc(C)c2)c1`, the T/C reads like this: under setting [4], 98 % of control; under setting [5], 94 % of control.

As to `CCCCC(=O)N(c1ccc(Nc2c3ccccc3nc3cc([N+](=O)[O-])ccc23)cc1)S(C)(=O)=O`, the T/C runs as follows: (dose: 3.18 mg/kg/injection, schedule: Q01DX009 (sc), vehicle: saline) 119 % of control; (dose: 6.25 mg/kg/injection, schedule: Q01DX009 (ip), vehicle: saline with Tween-80) 160 % of control; (dose: 16.5 mg/kg/injection, schedule: Q04DX003 (ip), vehicle: saline with Tween-80) 150 % of control; (dose: 25.0 mg/kg/injection, schedule: Q01DX009 (ip), vehicle: saline with Tween-80) 95 % of control; (dose: 25.0 mg/kg/injection, schedule: Q01DX009 (sc), vehicle: saline) 179 % of control; (dose: 25.0 mg/kg/injection, schedule: Q04DX003 (ip), vehicle: saline with Tween-80) 153 % of control. In addition, the T/C runs as follows: (dose: 44.0 mg/kg/injection, schedule: Q04DX003 (ip), vehicle: saline) 168 % of control; (dose: 50.0 mg/kg/injection, schedule: Q04DX003 (ip), vehicle: saline with Tween-80) 242 % of control; (dose: 67.0 mg/kg/injection, schedule: Q04DX003 (ip), vehicle: saline) 92 % of control; under setting [6], 188 % of control; under setting [1], 103 % of control; under setting [7], 100 % of control.

Turning to `CC1=CC(C)(C)SC(=S)N1`, the T/C under setting [8] was 98 % of control; the T/C under setting [1] is 111 % of control; the T/C under setting [9] is 104 % of control; the T/C under setting [2] was 104 % of control; the T/C under setting [10] was 108 % of control; the T/C under setting [3] is 96 % of control.

`CCCCCCCCCCCCCCCCC1(CC)NC(=O)NC1=O` (centres undefined): the T/C is, setting by setting: under setting [11], 95 % of control; under setting [12], 93 % of control; under setting [13], 96 % of control.

For `O=C(c1ccccc1)c1cc(Cl)ccc1O`, the T/C by setting is: under setting [8], 102 % of control; (dose: 100.0 mg/kg/injection, schedule: Q04DX002 (ip), vehicle: Klucel (hydroxypropylcellulose) (HPC)) 100 % of control; under setting [9], 98 % of control; (dose: 200.0 mg/kg/injection, schedule: Q04DX002 (ip), vehicle: Klucel (hydroxypropylcellulose) (HPC)) 93 % of control; under setting [10], 94 % of control; (dose: 400.0 mg/kg/injection, schedule: Q04DX002 (ip), vehicle: Klucel (hydroxypropylcellulose) (HPC)) 96 % of control.

For `Cn1cnnc1[N+](=O)[O-]`, the T/C under setting [14] was 105 % of control.

Turning to `Cc1ccc2cccc3c(=O)c4cccc5cccc(sc1c23)c54`, the T/C was 88 % of control under setting [4]; 92 % of control (dose: 100.0 mg/kg/injection, schedule: Q01DX009 (ip), vehicle: other); 97 % of control under setting [5]; 92 % of control (dose: 200.0 mg/kg/injection, schedule: Q01DX009 (ip), vehicle: other); 89 % of control under setting [15]; 92 % of control (dose: 400.0 mg/kg/injection, schedule: Q01DX009 (ip), vehicle: other).

In the case of `CC(CP(c1ccccc1)c1ccccc1)(CP(c1ccccc1)c1ccccc1)CP(c1ccccc1)c1ccccc1`, the T/C was 97 % of control (dose: 100.0 mg/kg/injection, schedule: Q01DX001 (ip), vehicle: Klucel (hydroxypropylcellulose) (HPC)); 111 % of control under setting [11]; 87 % of control (dose: 200.0 mg/kg/injection, schedule: Q01DX001 (ip), vehicle: Klucel (hydroxypropylcellulose) (HPC)); 105 % of control under setting [12]; 87 % of control (dose: 400.0 mg/kg/injection, schedule: Q01DX001 (ip), vehicle: Klucel (hydroxypropylcellulose) (HPC)); 90 % of control under setting [13].

As to `Cc1ccc(C(=O)C=Nc2ccccc2C(=O)O)cc1`, the T/C (dose: 75.0 mg/kg/injection, schedule: Q04DX003 (ip), vehicle: Klucel (hydroxypropylcellulose) (HPC)) is 94 % of control; the T/C (dose: 150.0 mg/kg/injection, schedule: Q04DX003 (ip), vehicle: Klucel (hydroxypropylcellulose) (HPC)) is 95 % of control; the T/C (dose: 300.0 mg/kg/injection, schedule: Q04DX003 (ip), vehicle: Klucel (hydroxypropylcellulose) (HPC)) is 103 % of control.

With `COC(=O)C(CSCSC)NC(=O)/C=C\c1ccccc1` (centres undefined), the T/C under setting [16] is 88 % of control; the T/C under setting [6] is 97 % of control; the T/C under setting [17] is 88 % of control; the T/C under setting [7] is 97 % of control; the T/C under setting [18] was 96 % of control; the T/C under setting [19] was 94 % of control.

As to `CN(C)c1ccc(/C=C2\CC(C)(C)c3ccccc3C2=O)cc1`, the T/C by setting is: under setting [14], 103 % of control; (dose: 200.0 mg/kg/injection, schedule: Q04DX003 (ip), vehicle: saline sonified) 97 % of control; (dose: 400.0 mg/kg/injection, schedule: Q04DX003 (ip), vehicle: saline sonified) 103 % of control.

As for `Nc1ncnc(N)c1NC(=O)c1ccc(OCc2ccccc2)c(Br)c1`, the T/C reads like this: (dose: 100.0 mg/kg/injection, schedule: Q01DX001 (ip), vehicle: saline with Tween-80) 93 % of control; (dose: 200.0 mg/kg/injection, schedule: Q01DX001 (ip), vehicle: saline with Tween-80) 97 % of control; (dose: 400.0 mg/kg/injection, schedule: Q01DX001 (ip), vehicle: saline with Tween-80) 96 % of control.

As for `CC(=O)NC1CCC(S(=O)(=O)N2N=NC3CCCCC32)CC1` (centres undefined), the T/C was 98 % of control under setting [16], 93 % of control under setting [17] and 92 % of control under setting [18].

For `CN(C(=N)N)c1ccc(C(=O)Oc2ccc([N+](=O)[O-])cc2)cc1`, the T/C by setting is: (dose: 50.0 mg/kg/injection, schedule: Q01DX009 (ip), vehicle: water) 90 % of control; (dose: 100.0 mg/kg/injection, schedule: Q01DX009 (ip), vehicle: water) 97 % of control and 105 % of control; (dose: 100.0 mg/kg/injection, schedule: Q04DX003 (ip), vehicle: water) 103 % of control; (dose: 200.0 mg/kg/injection, schedule: Q01DX009 (ip), vehicle: water) 96 % of control and 100 % of control; (dose: 200.0 mg/kg/injection, schedule: Q04DX003 (ip), vehicle: water) 100 % of control.

Turning to `Cc1cc2cc3c(=O)[nH]c(=O)[nH]c3nc2cc1C`, the T/C is 93 % of control under setting [4], 102 % of control under setting [5] and 91 % of control under setting [15].

Take `COc1c(NS(=O)(=O)c2ccccc2)cc2c3c(cccc13)CC2`: the T/C under setting [6] is 97 % of control, the T/C under setting [7] is 93 % of control and the T/C under setting [19] is 101 % of control.

Consider `COc1cc(C(=O)N2CCOC23CCN(Cc2ccccc2)CC3)cc(OC)c1OC`, for which the T/C is 95 % of control under setting [16]; 102 % of control under setting [6]; 90 % of control under setting [17]; 100 % of control under setting [7]; 100 % of control under setting [19].

These data come from PubChem BioAssay AID248 (DTP/NCI, 2004).
